From patent US11160871B2, “SSTR-targeted conjugates and particles and formulations thereof” (TARVEDA THERAPEUTICS, INC., priority 2015, dated 2021)

How the values were obtained:
H69 tumors = experiment: H69 model tumor growth inhibition; type: in vivo
[1] = tested on: HCC-33 (small cell lung cancer) xenograft; experiment: HCC-33 xenograft, multiple dose regimens (Example 17); type: in vivo
Protocol: HCC-33 (small cell lung cancer) xenograft was chosen to study efficacy of Conjugate 57. In some groups, Conjugate 57 was given at 1.0 mg/kg, 0.5 mg/kg or 0.33 mg/kg every week for 30 days, a total of four doses for each animal. In some other groups, Conjugate 57 was also given at 0.5 mg/kg or 0.25 mg/kg twice a week for 30 days, a total of 8 total doses for each animal.

[2] = tested on: NCI-H69 small cell lung cancer model; experiment: NCI-H69 model, comparison with standard of care combination; type: in vivo, rats; conditions: Cycle 1 Day 1, Cycle 2 Day 8; Conjugate 57 one cycle at MTD (2 mg/kg), other doses equivalent
Protocol: In yet another study, single cycle of Conjugate 57 treatment was compared with two cycles of standard of care combination in NCI-H69 small cell lung cancer model. NCI-H69 bearing rats were treated with two cycles of cctreotide+DM1, one or two cycles of cisplatin+etoposide, one cycle of Conjugate 57. Cycle 1 was given on Day 1, Cycle 2 on Day 8. Rats were dosed with MTD (2 mg/kg) of Conjugate 57. Octreotide, DM1, cisplatin, and etoposide doses were equivalent to Conjugate 57.

[3] = 0.25 mg/kg 2x/wk, 8 total doses
[4] = 0.33 mg/kg every week, four doses
[5] = 0.5 mg/kg every week, four doses
[6] = 1.0 mg/kg every week, four doses

**Q.** Which results are given for `COc1cc2cc(c1Cl)N(C)C(=O)C[C@H](OC(=O)[C@H](C)N(C)C(=O)CCSSC[C@H](NC(=O)[C@@H]1CSSC[C@H](NC(=O)[C@H](N)Cc3ccccc3)C(=O)N[C@@H](Cc3ccc(O)cc3)C(=O)N[C@H](Cc3c[nH]c4ccccc34)C(=O)N[C@@H](CCCCN)C(=O)N[C@@H]([C@@H](C)O)C(=O)N1)C(N)=O)[C@]1(C)O[C@H]1[C@H](C)[C@@H]1C[C@@](O)(NC(=O)O1)[C@H](OC)/C=C/C=C(\C)C2` [Conjugate 57]?
**A.** TGI % Day 8 (H69 tumors; Conjugate 57 1 mg/kg): 50.1%; TGI % Day 11 (H69 tumors; Conjugate 57 1 mg/kg): 61.4%; TGI % Day 14 (H69 tumors; Conjugate 57 1 mg/kg): 60.4%; TGI % Day 19 (H69 tumors; Conjugate 57 1 mg/kg): 63%; TGI % Day 22 (H69 tumors; Conjugate 57 1 mg/kg): 58.4%; TGI % Day 8 (H69 tumors; Conjugate 57 2 mg/kg): 63.8%; TGI % Day 11 (H69 tumors; Conjugate 57 2 mg/kg): 82.8%; TGI % Day 14 (H69 tumors; Conjugate 57 2 mg/kg): 87.9%; TGI % Day 19 (H69 tumors; Conjugate 57 2 mg/kg): 95.5%; TGI % Day 22 (H69 tumors; Conjugate 57 2 mg/kg): 97.8%; TGI % Day 4 [1, 3]: −12.5%; TGI % Day 8 [1, 3]: 50.4%; TGI % Day 11 [1, 3]: 67.3%; TGI % Day 15 [1, 3]: 85.8%; TGI % Day 18 [1, 3]: 92.3%; TGI % Day 22 [1, 3]: 95.8%; TGI % Day 25 [1, 3]: 97.2%; TGI % Day 29 [1, 3]: 97.8%; TGI % Day 4 [1, 4]: 2.1%; TGI % Day 8 [1, 4]: 34.2%; TGI % Day 11 [1, 4]: 48%; TGI % Day 15 [1, 4]: 62.4%; TGI % Day 18 [1, 4]: 73.8%; TGI % Day 22 [1, 4]: 79%; TGI % Day 25 [1, 4]: 83.4%; TGI % Day 29 [1, 4]: 78.5%; TGI % Day 4 ([1]; 0.5 mg/kg 2x/wk, 8 total doses): 0.5%; TGI % Day 8 ([1]; 0.5 mg/kg 2x/wk, 8 total doses): 61.6%; TGI % Day 11 ([1]; 0.5 mg/kg 2x/wk, 8 total doses): 78.3%; TGI % Day 15 ([1]; 0.5 mg/kg 2x/wk, 8 total doses): 91.8%; TGI % Day 18 ([1]; 0.5 mg/kg 2x/wk, 8 total doses): 96.2%; TGI % Day 22 ([1]; 0.5 mg/kg 2x/wk, 8 total doses): 97.6%; TGI % Day 25 ([1]; 0.5 mg/kg 2x/wk, 8 total doses): 99.1%; TGI % Day 29 ([1]; 0.5 mg/kg 2x/wk, 8 total doses): 99.2%; TGI % Day 4 [1, 5]: 1.6%; TGI % Day 8 [1, 5]: 60.3%; TGI % Day 11 [1, 5]: 68.8%; TGI % Day 15 [1, 5]: 82.7%; TGI % Day 18 [1, 5]: 87.1%; TGI % Day 22 [1, 5]: 91.1%; TGI % Day 25 [1, 5]: 93.6%; TGI % Day 29 [1, 5]: 89.5%; TGI % Day 4 [1, 6]: 25.8%; TGI % Day 8 [1, 6]: 69.9%; TGI % Day 11 [1, 6]: 84.4%; TGI % Day 15 [1, 6]: 93.6%; TGI % Day 18 [1, 6]: 97.4%; TGI % Day 22 [1, 6]: 99.2%; TGI % Day 25 [1, 6]: 99.8%; TGI % Day 29 [1, 6]: 99.7%; tolerability of multiple doses ([1]; all regimens): well tolerated; tumor response (tumor volume) [2]: complete regression
